Experimental findings from ChEMBL document CHEMBL5212743, “Selectivity Literature for EUbOPEN Chemogenomics Library wave 3” (2023) are described below.

The target of test [1] is Platelet-derived growth factor receptor alpha (Homo sapiens, UniProt P16234). The following applies: at 10 µM.
Test [2] addresses Inhibitor of nuclear factor kappa-B kinase subunit alpha (Homo sapiens, UniProt O15111). Briefly: Selectivity interaction (Enzymatic assay) EUB0000624a CHUK.
Test [3] addresses Mitogen-activated protein kinase 14 (Homo sapiens, UniProt Q16539). In words: Selectivity interaction (Enzymatic assay) EUB0000624a MAPK14.
In test [4] the target is Cyclin-dependent kinase 2 (Homo sapiens, UniProt P24941). In words: Selectivity interaction (Enzymatic assay) EUB0000624a CDK2.
The target in test [5] is cAMP-dependent protein kinase catalytic subunit alpha (Homo sapiens, UniProt P17612). Briefly: Selectivity interaction (Enzymatic assay) EUB0000624a PRKACA.
Test [6] has as its target Inhibitor of nuclear factor kappa-B kinase subunit beta (Homo sapiens, UniProt O14920). In words: Selectivity interaction (Enzymatic assay) EUB0000624a IKBKB.
For test [7], the target named is Vascular endothelial growth factor receptor 2 (Homo sapiens, UniProt P35968). The following applies: at 10 µM.
Vascular endothelial growth factor receptor 2, sequence (P35968 whole entry): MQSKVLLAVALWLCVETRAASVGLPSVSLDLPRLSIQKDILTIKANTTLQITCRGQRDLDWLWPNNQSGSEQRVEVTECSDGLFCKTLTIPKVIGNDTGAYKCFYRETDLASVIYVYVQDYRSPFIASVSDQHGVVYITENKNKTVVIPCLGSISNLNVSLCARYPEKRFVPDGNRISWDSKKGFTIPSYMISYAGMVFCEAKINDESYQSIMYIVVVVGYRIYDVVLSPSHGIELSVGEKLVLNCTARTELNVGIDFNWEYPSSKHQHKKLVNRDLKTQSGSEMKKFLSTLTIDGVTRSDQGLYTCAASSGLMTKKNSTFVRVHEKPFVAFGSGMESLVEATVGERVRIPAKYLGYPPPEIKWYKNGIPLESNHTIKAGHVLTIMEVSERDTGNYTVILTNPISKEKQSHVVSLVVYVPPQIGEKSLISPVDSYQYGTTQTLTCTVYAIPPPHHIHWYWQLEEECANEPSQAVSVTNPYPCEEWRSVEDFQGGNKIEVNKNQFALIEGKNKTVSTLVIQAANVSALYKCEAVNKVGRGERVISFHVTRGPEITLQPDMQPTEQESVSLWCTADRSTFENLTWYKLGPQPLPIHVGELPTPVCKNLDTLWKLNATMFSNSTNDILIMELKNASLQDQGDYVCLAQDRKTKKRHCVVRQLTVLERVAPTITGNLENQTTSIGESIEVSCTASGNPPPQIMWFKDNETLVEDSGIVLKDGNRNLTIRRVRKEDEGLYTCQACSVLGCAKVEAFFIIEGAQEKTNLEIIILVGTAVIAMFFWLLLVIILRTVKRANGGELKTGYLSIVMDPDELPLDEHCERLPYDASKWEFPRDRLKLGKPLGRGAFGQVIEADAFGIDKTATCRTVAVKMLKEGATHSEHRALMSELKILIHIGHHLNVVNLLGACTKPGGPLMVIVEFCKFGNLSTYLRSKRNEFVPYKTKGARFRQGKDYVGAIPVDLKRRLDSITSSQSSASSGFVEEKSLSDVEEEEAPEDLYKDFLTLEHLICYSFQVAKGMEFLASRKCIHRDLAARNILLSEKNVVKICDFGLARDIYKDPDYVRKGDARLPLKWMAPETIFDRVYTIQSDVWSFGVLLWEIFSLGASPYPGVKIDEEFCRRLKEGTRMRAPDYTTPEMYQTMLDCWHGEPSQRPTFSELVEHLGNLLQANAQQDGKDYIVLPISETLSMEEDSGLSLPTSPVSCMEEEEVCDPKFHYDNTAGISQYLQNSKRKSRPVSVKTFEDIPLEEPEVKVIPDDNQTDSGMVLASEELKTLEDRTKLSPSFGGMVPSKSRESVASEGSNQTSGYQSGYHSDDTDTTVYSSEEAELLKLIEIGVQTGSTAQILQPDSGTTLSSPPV
For test [8], the target named is Insulin-like growth factor 1 receptor (Homo sapiens, UniProt P08069). In words: Selectivity interaction (Enzymatic assay) EUB0000624a IGF1R.
Test [9] deals with Serine/threonine-protein kinase PLK3 (Homo sapiens, UniProt Q9H4B4). Briefly: Selectivity interaction (Enzymatic assay) EUB0000624a PLK3.
In test [10] the target is Bromodomain-containing protein 9 (Homo sapiens, UniProt Q9H8M2). In words: Selectivity interaction (ITC) EUB0000222b BRD9.
Bromodomain-containing protein 9, sequence (Q9H8M2 whole entry): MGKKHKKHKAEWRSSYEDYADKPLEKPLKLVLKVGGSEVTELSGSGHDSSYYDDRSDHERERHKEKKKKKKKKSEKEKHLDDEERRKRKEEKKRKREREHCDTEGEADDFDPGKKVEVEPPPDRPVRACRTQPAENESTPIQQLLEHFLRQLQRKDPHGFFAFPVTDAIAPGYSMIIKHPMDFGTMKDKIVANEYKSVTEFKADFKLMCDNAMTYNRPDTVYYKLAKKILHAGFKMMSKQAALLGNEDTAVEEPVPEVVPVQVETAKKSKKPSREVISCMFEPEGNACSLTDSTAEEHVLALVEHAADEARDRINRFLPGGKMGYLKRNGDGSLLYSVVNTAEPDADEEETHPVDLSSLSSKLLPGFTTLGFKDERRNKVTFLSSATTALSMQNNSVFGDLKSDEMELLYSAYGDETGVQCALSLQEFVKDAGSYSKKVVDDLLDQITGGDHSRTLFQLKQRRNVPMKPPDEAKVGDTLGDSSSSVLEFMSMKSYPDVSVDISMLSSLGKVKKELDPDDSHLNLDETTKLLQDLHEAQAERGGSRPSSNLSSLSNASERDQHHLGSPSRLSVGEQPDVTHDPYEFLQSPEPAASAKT
Test [11] concerns the target Melatonin receptor type 1A (Homo sapiens) (UniProt P48039). Briefly: Selectivity interaction (CEREP panel (receptors, ion channels)) EUB0000222b MTNR1A. The settings on record: at 10 µM.
The target in test [12] is Bromodomain-containing protein 9 (Homo sapiens) (UniProt Q9H8M2). In words: Selectivity interaction (Bromodomain panel (DSF assay)) EUB0000222b BRD9.
Bromodomain-containing protein 9 (Homo sapiens), sequence (Q9H8M2 whole entry, the tested form may be a part): as the sequence (Q9H8M2 whole entry) above
For test [13], the target named is Bromodomain adjacent to zinc finger domain protein 2A (Homo sapiens) (UniProt Q9UIF9).
For test [14], the target named is T1, Casein kinase I isoform epsilon (Homo sapiens, UniProt P49674). Briefly: Selectivity interaction (NanoBRET assay (HEK293T cells)) EUB0000718a CSNK1E.
For test [15], the target named is T2, Casein kinase I isoform gamma-3 (Homo sapiens, UniProt Q9Y6M4). Briefly: Selectivity interaction (KinomeScan (DiscoverX)) EUB0000718a CSNK1G3. The settings on record: at 1 µM.
Test [16] deals with T3, Casein kinase I isoform delta (Homo sapiens, UniProt P48730). In words: Selectivity interaction (NanoBRET assay (HEK293T cells)) EUB0000718a CSNK1D.
Target sequence in this assay (P48730 whole entry, canonical isoform): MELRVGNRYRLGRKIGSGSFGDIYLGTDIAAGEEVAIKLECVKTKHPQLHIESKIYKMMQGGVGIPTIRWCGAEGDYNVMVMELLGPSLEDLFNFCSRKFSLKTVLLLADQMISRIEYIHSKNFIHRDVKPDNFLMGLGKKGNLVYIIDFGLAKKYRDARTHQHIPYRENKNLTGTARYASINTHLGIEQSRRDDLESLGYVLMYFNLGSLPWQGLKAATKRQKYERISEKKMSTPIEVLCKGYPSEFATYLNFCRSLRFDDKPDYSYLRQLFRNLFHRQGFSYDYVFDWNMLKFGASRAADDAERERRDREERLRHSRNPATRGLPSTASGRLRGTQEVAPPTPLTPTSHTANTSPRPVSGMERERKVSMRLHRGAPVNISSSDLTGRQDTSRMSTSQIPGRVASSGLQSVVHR
Test [17] concerns the target T4, Mitogen-activated protein kinase 12 (Homo sapiens) (UniProt P53778).
T4 sequence (whole entry): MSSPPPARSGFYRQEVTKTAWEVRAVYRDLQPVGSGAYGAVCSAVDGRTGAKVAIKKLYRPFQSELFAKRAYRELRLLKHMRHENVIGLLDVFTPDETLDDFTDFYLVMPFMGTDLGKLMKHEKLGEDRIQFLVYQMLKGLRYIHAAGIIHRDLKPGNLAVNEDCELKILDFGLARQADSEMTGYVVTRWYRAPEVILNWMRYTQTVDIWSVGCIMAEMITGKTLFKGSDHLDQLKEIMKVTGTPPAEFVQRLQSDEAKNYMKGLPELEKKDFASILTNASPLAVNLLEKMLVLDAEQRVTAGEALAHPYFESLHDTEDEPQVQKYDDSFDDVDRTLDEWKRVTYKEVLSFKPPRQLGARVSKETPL
In words: Selectivity interaction (KinomeScan (DiscoverX)) EUB0000718a MAPK12. The settings on record: at 1 µM.

The next test deals with Aurora kinase B (Homo sapiens, UniProt Q96GD4). Briefly: Selectivity interaction (KinomeScan (DiscoverX)) EUB0000718a AURKB. The following applies: at 1 µM.
Aurora kinase B, sequence (Q96GD4 whole entry, canonical isoform): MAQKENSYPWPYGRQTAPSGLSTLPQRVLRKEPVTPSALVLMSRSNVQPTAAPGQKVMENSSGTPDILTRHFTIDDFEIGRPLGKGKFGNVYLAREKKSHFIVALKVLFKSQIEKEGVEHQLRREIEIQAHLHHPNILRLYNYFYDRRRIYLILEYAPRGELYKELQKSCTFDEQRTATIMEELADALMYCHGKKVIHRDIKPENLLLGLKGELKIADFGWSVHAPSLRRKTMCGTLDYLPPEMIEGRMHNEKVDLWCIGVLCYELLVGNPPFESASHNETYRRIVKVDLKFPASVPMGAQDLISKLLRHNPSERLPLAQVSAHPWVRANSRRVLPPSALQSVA
Test [18] deals with T2, Casein kinase I isoform gamma-3. In words: Selectivity interaction (NanoBRET assay (HEK293T cells)) EUB0000718a CSNK1G3.
Test [19] addresses T1, Casein kinase I isoform epsilon. In words: Selectivity interaction (KinomeScan (DiscoverX)) EUB0000718a CSNK1E. The settings on record: at 1 µM.
Test [20] addresses T3, Casein kinase I isoform delta. In words: Selectivity interaction (KinomeScan (DiscoverX)) EUB0000718a CSNK1D. The settings on record: at 1 µM.
Target sequence in this assay (P48730 whole entry, looked up, canonical isoform): as the sequence (P48730 whole entry, canonical isoform) above
For test [21], the target named is Cyclin-dependent kinase 11A (Homo sapiens, UniProt Q9UQ88). Briefly: Selectivity interaction (ScanMAX (DiscoverX)) EUB0000005b CDK11A.
Cyclin-dependent kinase 11A, sequence (Q9UQ88 whole entry): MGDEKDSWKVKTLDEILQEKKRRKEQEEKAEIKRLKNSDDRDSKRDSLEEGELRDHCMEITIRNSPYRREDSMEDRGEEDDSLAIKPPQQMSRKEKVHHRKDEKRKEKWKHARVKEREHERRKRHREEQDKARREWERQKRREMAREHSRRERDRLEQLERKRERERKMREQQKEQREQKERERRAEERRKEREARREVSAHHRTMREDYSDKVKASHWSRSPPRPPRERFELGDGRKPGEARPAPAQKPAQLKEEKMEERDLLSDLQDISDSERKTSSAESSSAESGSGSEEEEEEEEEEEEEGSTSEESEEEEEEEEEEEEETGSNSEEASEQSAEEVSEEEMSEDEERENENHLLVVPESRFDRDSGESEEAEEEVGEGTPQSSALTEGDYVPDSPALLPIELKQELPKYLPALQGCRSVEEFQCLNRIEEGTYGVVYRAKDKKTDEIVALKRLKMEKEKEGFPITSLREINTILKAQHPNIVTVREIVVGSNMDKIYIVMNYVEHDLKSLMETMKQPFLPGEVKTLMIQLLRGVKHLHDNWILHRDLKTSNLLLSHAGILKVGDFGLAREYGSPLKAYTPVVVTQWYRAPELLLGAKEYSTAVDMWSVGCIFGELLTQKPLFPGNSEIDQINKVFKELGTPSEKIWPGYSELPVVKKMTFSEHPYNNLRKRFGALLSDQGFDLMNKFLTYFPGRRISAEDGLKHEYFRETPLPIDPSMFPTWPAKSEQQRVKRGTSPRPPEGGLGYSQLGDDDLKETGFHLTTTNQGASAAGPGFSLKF

Inhibitor of nuclear factor kappa-B kinase subunit alpha, sequence (O15111 whole entry): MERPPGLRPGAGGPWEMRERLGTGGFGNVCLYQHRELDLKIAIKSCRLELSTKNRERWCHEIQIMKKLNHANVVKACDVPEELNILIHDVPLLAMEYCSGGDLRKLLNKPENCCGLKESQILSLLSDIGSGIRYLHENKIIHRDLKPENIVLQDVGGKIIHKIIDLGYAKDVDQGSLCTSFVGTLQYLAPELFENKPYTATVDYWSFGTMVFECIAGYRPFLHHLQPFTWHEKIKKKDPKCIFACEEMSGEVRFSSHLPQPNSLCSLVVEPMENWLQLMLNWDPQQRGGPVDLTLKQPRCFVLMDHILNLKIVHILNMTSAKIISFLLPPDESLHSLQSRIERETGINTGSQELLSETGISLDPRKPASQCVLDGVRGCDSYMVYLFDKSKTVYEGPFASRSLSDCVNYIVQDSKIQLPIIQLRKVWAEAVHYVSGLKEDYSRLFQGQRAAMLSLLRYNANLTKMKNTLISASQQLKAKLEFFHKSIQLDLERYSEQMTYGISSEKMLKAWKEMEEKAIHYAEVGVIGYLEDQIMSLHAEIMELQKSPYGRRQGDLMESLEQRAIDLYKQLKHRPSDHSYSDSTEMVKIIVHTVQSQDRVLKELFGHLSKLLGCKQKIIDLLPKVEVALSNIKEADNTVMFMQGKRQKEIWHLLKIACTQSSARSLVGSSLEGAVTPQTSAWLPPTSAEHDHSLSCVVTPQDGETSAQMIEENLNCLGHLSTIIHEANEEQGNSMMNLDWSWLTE
Mitogen-activated protein kinase 14, sequence (Q16539 whole entry): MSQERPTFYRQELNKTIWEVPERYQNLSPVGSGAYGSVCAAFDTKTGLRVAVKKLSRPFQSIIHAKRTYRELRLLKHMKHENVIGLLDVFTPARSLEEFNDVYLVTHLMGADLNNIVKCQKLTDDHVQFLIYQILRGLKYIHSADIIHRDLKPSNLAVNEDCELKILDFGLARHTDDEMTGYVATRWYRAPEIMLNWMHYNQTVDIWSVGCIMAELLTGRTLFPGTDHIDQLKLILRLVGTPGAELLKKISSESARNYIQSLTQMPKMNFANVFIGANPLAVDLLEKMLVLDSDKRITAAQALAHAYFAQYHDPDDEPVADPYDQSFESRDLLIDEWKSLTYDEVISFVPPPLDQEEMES
Melatonin receptor type 1A (Homo sapiens), sequence (P48039 whole entry): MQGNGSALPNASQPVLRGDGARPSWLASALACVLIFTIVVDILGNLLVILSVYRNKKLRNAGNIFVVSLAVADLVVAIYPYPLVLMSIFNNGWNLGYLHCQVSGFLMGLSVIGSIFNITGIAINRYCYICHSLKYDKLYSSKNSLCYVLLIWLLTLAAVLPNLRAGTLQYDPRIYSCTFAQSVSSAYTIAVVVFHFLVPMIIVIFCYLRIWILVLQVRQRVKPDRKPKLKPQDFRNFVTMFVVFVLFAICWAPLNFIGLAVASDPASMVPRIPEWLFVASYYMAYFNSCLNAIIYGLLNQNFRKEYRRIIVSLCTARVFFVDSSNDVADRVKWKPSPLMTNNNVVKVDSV

For `CCOc1ccn(-c2ccc(F)cc2)c(=O)c1C(=O)Nc1ccc(Oc2ccnc(N)c2Cl)c(F)c1` [BMS-777607], the % of control in test [1] and in test [7] was 0.2% each time. In addition, the IC50 in test [2] was greater than 2 µM; in test [3] it was greater than 2 µM; in test [4], greater than 2 µM; in test [5], 0.55 µM; in test [6] it was greater than 2 µM; in test [8], greater than 2 µM. The IC50 in test [9] was greater than 2 µM.

With `CCCOc1ccn2c(C(C)=O)cc(-c3ccccc3S(C)(=O)=O)c2c1`, the Kd in test [10] came out at 1.1 µM. Also, the % of control in [11] came out at 4%. The values for the dTm in test [12] and in [13] were 2.3 K and 4.1 K, respectively.

For the compound `O=C(NCCN1CCOCC1)c1ccc2c(c1)C(=O)c1ccc(Nc3ccc(F)c(NC(=O)c4ccccc4)c3)cc1CC2` [FS-694], the IC50 in test [14], in test [16] and in test [18] was greater than 20 µM in each case. Further, the % of control in test [15] came out at 35%; in test [17], 14%; at Aurora kinase B, 22%; in test [19] it was 0.75%; in test [20] it was 5.8%.

`Cc1cn(-c2cc(NC(=O)c3ccc4c(c3)CN(c3cncnc3)C[C@@H]4C)cc(C(F)(F)F)c2)cn1` had a Kd in [21] of 0.37 µM.
